Target: T1, human ANO6 (Homo sapiens, UniProt Q4KMQ2)
T1 construct: expressed in transfected cells
T1 sequence (Q4KMQ2 1-931 isoform Q4KMQ2-2): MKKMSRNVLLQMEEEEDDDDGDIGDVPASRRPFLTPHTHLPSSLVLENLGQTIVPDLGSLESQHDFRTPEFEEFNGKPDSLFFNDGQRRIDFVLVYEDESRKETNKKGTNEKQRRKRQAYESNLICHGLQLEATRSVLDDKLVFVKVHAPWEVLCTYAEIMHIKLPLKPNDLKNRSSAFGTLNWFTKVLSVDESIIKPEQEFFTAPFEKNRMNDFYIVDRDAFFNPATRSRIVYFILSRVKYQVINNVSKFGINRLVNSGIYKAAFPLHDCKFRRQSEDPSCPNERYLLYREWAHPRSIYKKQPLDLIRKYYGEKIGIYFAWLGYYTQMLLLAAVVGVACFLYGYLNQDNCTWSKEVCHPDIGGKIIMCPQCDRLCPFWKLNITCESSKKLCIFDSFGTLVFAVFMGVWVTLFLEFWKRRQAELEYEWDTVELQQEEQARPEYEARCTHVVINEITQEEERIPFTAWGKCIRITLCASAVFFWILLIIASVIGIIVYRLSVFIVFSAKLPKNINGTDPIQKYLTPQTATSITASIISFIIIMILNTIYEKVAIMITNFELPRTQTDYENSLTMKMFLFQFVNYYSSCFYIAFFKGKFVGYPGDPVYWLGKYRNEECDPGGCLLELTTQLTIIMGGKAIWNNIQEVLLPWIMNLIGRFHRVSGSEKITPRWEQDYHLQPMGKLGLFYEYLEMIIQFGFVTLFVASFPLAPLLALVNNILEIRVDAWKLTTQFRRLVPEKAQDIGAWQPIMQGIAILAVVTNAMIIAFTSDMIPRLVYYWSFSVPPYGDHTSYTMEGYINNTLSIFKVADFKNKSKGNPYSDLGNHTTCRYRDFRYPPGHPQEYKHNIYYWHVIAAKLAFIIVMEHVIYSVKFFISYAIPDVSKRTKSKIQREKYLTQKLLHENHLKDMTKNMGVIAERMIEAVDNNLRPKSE
Assay: LACT C2 assay (phosphatidylserine scramblase function assay)
Format: cell-based
Conditions: FRT cells expressing human ANO6, 10 μM ionomycin; for inhibition at 0.1 µM: test compound 100 nM, read-out: Inhibition Level 100 nM; for inhibition at 1 µM: test compound 1 μM, read-out: Inhibition Level 1 μM
From the text: Phosphatidylserine Scramblase Function Assay
1. Materials and Instruments
Ionomycin (Alomonelab, cat. #I-700), DAPI (Sigma-Aldrich, cat. #D8417), paraformaldehyde (Biosesang, cat. #P2031), Lionheart FX Automated Microscope (BioTek, Winooski), Python3 (Python Software Foundation), and OpenCV (Open Source Computer Vision Library).
Fisher rat thyroid (FRT) cells stably expressing human ANO6 (GenBank accession no. NP_001191732.1, provided by J. H. Nam, Dongguk University College of Medicine, Korea) were grown in DMEM/Ham's F-12 (1:1) medium with 10% FBS, 2 mM L-549 glutamine, 100 units/mL penicillin, and 100 μg/mL streptomycin at 37° C. and 5% CO2.
FRT cells stably expressing human ANO6 were plated in 96 well black-walled microplates at a density of 2×10^4 cells/well. After 24 hours incubation, cells were treated with the test compound (dissolved in DMSO) were treated to each well to become 1% v/v DMSO for 10 minutes, then 10 μM of ionomycin was applied. Finally each well was washed with 200 μL PBS after 10 minutes. After washout, the phosphatidylserine and nuclei were stained with PBS containing 500 nM Lactadherin-C2 (Lact-C2)-GFP, then cells were washed with 200 μL PBS. Cells were fixed with 4% paraformaldehyde for 5 minutes at room temperature. For morphological analysis, some cells were stained with fluorescently labelled DAPI for 15 minutes at room temperature. Quantitative analysis of the fluorescence intensity of Lact-C2-GFP was performed with Python3 and OpenCV. OpenCV was used to remove background and noise pixels, and the sum of all remaining pixel values was used to evaluate the fluorescence intensity of Lact-C2-GFP.
The inhibitory activity (%) of each of the test compounds was obtained by the following steps. In each row of 96 well plate, the inhibitory activity of each of the test compounds was calculated as percentages. The inhibitory activity of a negative control group to which neither compounds nor ionomycin were treated was set to be 100%, and the inhibitory activity of a positive control group to which ionomycin was treated and compounds were not treated was set to be 0%. The assay was performed in triplicate, and the results were averaged.

SMILES | inhibition at 0.1 µM | inhibition at 1 µM
O=C(NC1(c2ccccc2)CC1)c1cccc(Nc2ccc(-c3cccc(F)c3)cn2)c1 [Compound 134, 3-((5-(3-fluorophenyl)pyridin-2-yl)amino)-N-(1-phenylcyclopropyl)benzamide] | < 30% | 30 to 60%
CC(C)(NC(=O)c1cccc(Nc2ccc(-c3ccccc3)nn2)c1)c1ccc(F)cc1 [Compound 213, N-(2-(4-fluorophenyl)propan-2-yl)-3-((6-phenylpyridazin-3-yl)amino)benzamide] | < 30% | 30 to 60%
O=C(N[C@@H]1C[C@H]1c1ccc(Cl)c(F)c1)c1cccc(Nc2ccc(-c3ccccc3)nn2)c1 [Compound 221, N-((1R,2S)-2-(4-chloro-3-fluorophenyl)cyclopropyl)-3-((6-phenylpyridazin-3-yl)amino)benzamide] | 30 to 60% | ≥ 60%
Cc1ccc(CNC(=O)c2cccc(Nc3ncc(-c4cccc(F)c4)cn3)c2)c(C)c1 [Compound 206, N-(2,4-dimethylbenzyl)-3-((5-(3-fluorophenyl)pyrimidin-2-yl)amino)benzamide] | < 30% | 30 to 60%
O=C(N[C@@H]1C[C@H]1c1ccc(F)cc1)c1cccc(Nc2ccc(-c3ccccc3)nn2)c1 [Compound 199] | ≥ 60% | ≥ 60%
O=C(NCc1ccccc1Cl)c1cccc(Nc2ncc(-c3cccc(F)c3)cn2)c1 [Compound A98] | < 30% | 30 to 60%
N#CC1(NC(=O)c2cccc(Nc3ncc(-c4cccc(F)c4)cn3)c2)CC1 [Compound 218, N-(1-cyanocyclopropyl)-3-((5-(3-fluorophenyl)pyrimidin-2-yl)amino)benzamide] | < 30% | 30 to 60%
O=C(Nc1nccs1)c1cccc(Nc2ncc(-c3cccc(F)c3)cn2)c1 [Compound 138, 3-((5-(3-fluorophenyl)pyrimidin-2-yl)amino)-N-(thiazol-2-yl)benzamide] | < 30% | ≥ 60%
O=C(NCc1ccc(Cl)cc1Cl)c1cccc(Nc2ncc(-c3cccc(F)c3)cn2)c1 [Compound 207, N-(2,4-dichlorobenzyl)-3-((5-(3-fluorophenyl)pyrimidin-2-yl)amino)benzamide] | < 30% | 30 to 60%
O=C(NCc1ccc(F)c(C(F)(F)F)c1)c1cccc(Nc2ccc(-c3ccccc3)nn2)c1 [Compound 195, N-(4-fluoro-3-(trifluoromethyl)benzyl)-3-((6-phenylpyridazin-3-yl)amino)benzamide] | < 30% | ≥ 60%
O=C(NC1(CO)CC1)c1cccc(Nc2ccc(-c3ccccc3)nn2)c1 [Compound 228, N-(1-(hydroxymethyl)cyclopropyl)-3-((6-phenylpyridazin-3-yl)amino)benzamide] | < 30% | < 30%
Cc1cc(CNC(=O)c2cccc(Nc3ccc(-c4ccccc4)nn3)c2)ccc1F [Compound 231, N-(4-fluoro-3-methylbenzyl)-3-((6-phenylpyridazin-3-yl)amino)benzamide] | < 30% | < 30%
CN1CCC(CCNC(=O)c2cccc(Nc3ccc(-c4cccc(F)c4)cn3)c2)CC1 [Compound 139, 3-((5-(3-fluorophenyl)pyridin-2-yl)amino)-N-(2-(1-methylpiperidin-4-yl)ethyl)benzamide] | < 30% | < 30%
O=C(NC1(c2ccc(F)cc2)CC1)c1cccc(Nc2ccc(-c3ccccc3)nn2)c1 [Compound 196, N-(1-(4-fluorophenyl)cyclopropyl)-3-((6-phenylpyridazin-3-yl)amino)benzamide] | < 30% | 30 to 60%
CN1CCN(c2cc(F)ccc2CNC(=O)c2cccc(Nc3ccc(-c4ccccc4)nn3)c2)CC1 [Compound 222, N-(4-fluoro-2-(4-methylpiperazin-1-yl)benzyl)-3-((6-phenylpyridazin-3-yl)amino)benzamide] | < 30% | 30 to 60%
CN1CCC(CNC(=O)c2cccc(Nc3ccc(-c4cccc(F)c4)cn3)c2)C1 (stereo not shown) [Compound 145, 3-((5-(3-fluorophenyl)pyridin-2-yl)amino)-N-((1-methylpyrrolidin-3-yl)methyl)benzamide] | < 30% | < 30%
O=C(NCc1cc(F)c(F)cc1F)c1cccc(Nc2ncc(-c3cccc(F)c3)cn2)c1 [Compound 209, 3-((5-(3-fluorophenyl)pyrimidin-2-yl)amino)-N-(2,4,5-trifluorobenzyl)benzamide] | < 30% | < 30%
O=C(NCC1(O)CC1)c1cccc(Nc2ccc(-c3ccccc3)nn2)c1 [Compound 237, N-((1-hydroxycyclopropyl)methyl)-3-((6-phenylpyridazin-3-yl)amino)benzamide] | < 30% | < 30%
O=C(NCc1ccc(F)c(F)c1)c1cccc(Nc2ccc(-c3ccccc3)nn2)c1 [Compound 230, N-(3,4-difluorobenzyl)-3-((6-phenylpyridazin-3-yl)amino)benzamide] | < 30% | 30 to 60%
O=C(Nc1cccc(F)c1)C1CCCC(Nc2ccc(-c3ccccc3)nn2)C1 (stereo not shown) [Compound 191, N-(3-fluorophenyl)-3-((6-phenylpyridazin-3-yl)amino)cyclohexane-1-carboxamide] | < 30% | –
COC(=O)c1ccc(CCNC(=O)c2cccc(Nc3ncc(-c4cccc(F)c4)cn3)c2)cc1 [Compound 126, methyl 4-(2-(3-((5-(3-fluorophenyl)pyrimidin-2-yl)amino)benzamido)ethyl)benzoate] | – | < 30%
N#CC1(NC(=O)c2cccc(Nc3ccc(-c4ccccc4)nn3)c2)CC1 [Compound 225, N-(1-cyanocyclopropyl)-3-((6-phenylpyridazin-3-yl)amino)benzamide] | < 30% | 30 to 60%
O=C(Nc1cccc(F)c1)c1cccc(NC2CCC(c3ccccc3)CC2)c1 (single isomer, unassigned) [Compound 188, N-(3-fluorophenyl)-3-((4-phenylcyclohexyl)amino)benzamide] | < 30% | –
COc1ccc([C@@H]2C[C@H]2NC(=O)c2cccc(Nc3ccc(-c4ccccc4)nn3)c2)cc1 [Compound 236, N-((1R,2S)-2-(4-methoxyphenyl)cyclopropyl)-3-((6-phenylpyridazin-3-yl)amino)benzamide] | < 30% | ≥ 60%
O=C(N[C@@H]1C[C@H]1c1ccccc1)C12CC3CC(CC(Nc4ccc(-c5ccccc5)nn4)(C3)C1)C2 [Compound 166, N-((1R,2S)-2-phenylcyclopropyl)-3-((6-phenylpyridazin-3-yl)amino)adamantane-1-carboxamide] | < 30% | –
Nc1cccc(CCNC(=O)c2cccc(Nc3ncc(-c4cccc(F)c4)cn3)c2)c1 [Compound 147, N-(3-aminophenethyl)-3-((5-(3-fluorophenyl)pyrimidin-2-yl)amino)benzamide] | < 30% | < 30%
Cc1cscc1-c1cnc(Nc2cccc(C(=O)Nc3cccc(F)c3)c2)nc1 [Compound 179, N-(3-fluorophenyl)-3-((5-(4-methylthiophen-3-yl)pyrimidin-2-yl)amino)benzamide] | ≥ 60% | –

Reference: patent publication US20230080054A1 (ILDONG PHARMACEUTICAL CO., LTD., priority 2021, published 2023)
